Experimental data as given in patent US20240082223A1, “DIHYDROFUROPYRIDINE DERIVATIVES AS RHO- KINASE INHIBITORS” (CHIESI FARMACEUTICI S.P.A., priority 2020, published 2024).

How the values were obtained:
Assay type in all cases: biochemical
[1] = biological target: T1, ROCK1 (Homo sapiens, UniProt Q13464); test: In vitro inhibitory activity assay ROCK1 (Method B, ADP-Glo, 200 μM ATP); conditions: ATP 200 μM, read-out: Method B ROCK 1 (Ki)
Procedure: (§1) In Vitro Inhibitory Activity Assay Description ROCK1 and ROCK2
(§2) The effectiveness of compounds of the present invention to inhibit Rho kinase activity can be determined in a 10 μl assay containing 40 mM Tris pH7.5, 20 mM MgCl2 0.1 mg/mL BSA, 50 μM DTT and 2.5 μM peptide substrate (Myelin Basic Protein) using an ADP-Glo kit (Promega). Compounds were dissolved in DMSO such that the final concentration of DMSO was 1% in the assay. All reactions/incubations are performed at 25° C. Compound (2 μL) and either Rho kinase 1 or 2 (4 μl) were mixed and incubated for 30 min. Reactions were initiated by addition of ATP (4 μL) such that the final concentration of ATP in the assay was 200 μM. After a 1 hour incubation 10111 of ADP-Glo Reagent was added and after a further 45 minute incubation 20 μL of Kinase Detection Buffer was added and the mixture incubated for a further 30 minutes. The luminescent signal was measured on a luminometer. […] Compounds were tested in dose-response format and the inhibition of kinase activity was calculated at each concentration of compound. To determine the IC50 (concentration of compound required to inhibit 50% of the enzyme activity) data were fit to a plot of % inhibition vs Log10 compound concentration using a sigmoidal fit with a variable slope and fixing the maximum to 100% and the minimum to 0%. To determine the Ki values the Cheng-Prusoff equation was utilized (Ki=IC50/(1[S]/Km).

[2] = biological target: T2, ROCK2 (Homo sapiens, UniProt O75116); test: In vitro inhibitory activity assay ROCK2 (Method B, ADP-Glo, 200 μM ATP); conditions: ATP 200 μM, read-out: Method B ROCK 2 (Ki)
Procedure: as §1, §2

[3] = biological target: PKA (Homo sapiens, UniProt P17612); test: In vitro inhibitory activity assay for PKA (ADP-Glo), reported as selectivity ratio vs ROCK2; conditions: Ki PKA divided by Ki ROCK2 (method B)
Procedure: In vitro inhibitory activity assay description for PKA
The effectiveness of compounds of the present invention to inhibit PKA activity can be determined in a […], assay containing 40 mM Tris pH7.5, 20 mM MgCl2 0.1 mg/mL BSA, 50 μM DTT and 260 μM peptide substrate (kemptide) using an ADP-Glo kit (Promega). Compounds were dissolved in DMSO such that the final concentration of DMSO was 1% in the assay. All reactions/incubations are performed at 25° C. Compound and PKA enzyme (6 μl) were mixed and incubated for 30 min. Reactions were initiated by addition of ATP (4 μL) such that the final concentration of ATP in the assay was 10 μM. After a 30 minute incubation 10 μL of ADP-Glo Reagent was added and after a further 1 hour incubation 20 μL of Kinase Detection Buffer was added and the mixture incubated for a further 45 minutes. The luminescent signal was measured on a luminometer. […] Compounds were tested in dose-response format and the inhibition of kinase activity was calculated at each concentration of compound. To determine the IC50 (concentration of compound required to inhibit 50% of the enzyme activity) data were fit to a plot of % inhibition vs Log10 compound concentration using a sigmoidal fit with a variable slope and fixing the maximum to 100% and the minimum to 0%. To determine the Ki values the Cheng-Prusoff equation was utilized (Ki=IC50/(1+[S]/Km).
In vitro inhibitory activities for PKA were reported as selectivity ratio vs. ROCK2. Selectivity ratio PKA/ROCK2 was calculated by dividing the Ki value for PKA by Ki value of ROCK2 (method B) and reported into table 1.

[4] = biological target: T1, ROCK1; test: In vitro inhibitory activity assay ROCK1 (Method A, ADP-Glo, 10 μM ATP); conditions: ATP 10 μM, read-out: Method A ROCK 1 (Ki)
Procedure: (§3) In vitro inhibitory activity assay description ROCK1 and ROCK2
as §2, with “(2 uL)” for “(2 μL)”, “was 10” for “was 200”, “incubation […]” for “incubation 10111”, “45 minutes” for “45 minute”, “20 uL” for “20 μL”, “utilized (Ki=IC50/(1+[S]/Km).” for “utilized (Ki=IC50/(1[S]/Km).”

[5] = biological target: T2, ROCK2; test: In vitro inhibitory activity assay ROCK2 (Method A, ADP-Glo, 10 μM ATP); conditions: ATP 10 μM, read-out: Method A ROCK 2 (Ki)
Procedure: as §3
as §2, with “(2 uL)” for “(2 μL)”, “was 10” for “was 200”, “incubation […]” for “incubation 10111”, “45 minutes” for “45 minute”, “20 uL” for “20 μL”, “utilized (Ki=IC50/(1+[S]/Km).” for “utilized (Ki=IC50/(1[S]/Km).”

T1 sequence (Q13464 whole entry): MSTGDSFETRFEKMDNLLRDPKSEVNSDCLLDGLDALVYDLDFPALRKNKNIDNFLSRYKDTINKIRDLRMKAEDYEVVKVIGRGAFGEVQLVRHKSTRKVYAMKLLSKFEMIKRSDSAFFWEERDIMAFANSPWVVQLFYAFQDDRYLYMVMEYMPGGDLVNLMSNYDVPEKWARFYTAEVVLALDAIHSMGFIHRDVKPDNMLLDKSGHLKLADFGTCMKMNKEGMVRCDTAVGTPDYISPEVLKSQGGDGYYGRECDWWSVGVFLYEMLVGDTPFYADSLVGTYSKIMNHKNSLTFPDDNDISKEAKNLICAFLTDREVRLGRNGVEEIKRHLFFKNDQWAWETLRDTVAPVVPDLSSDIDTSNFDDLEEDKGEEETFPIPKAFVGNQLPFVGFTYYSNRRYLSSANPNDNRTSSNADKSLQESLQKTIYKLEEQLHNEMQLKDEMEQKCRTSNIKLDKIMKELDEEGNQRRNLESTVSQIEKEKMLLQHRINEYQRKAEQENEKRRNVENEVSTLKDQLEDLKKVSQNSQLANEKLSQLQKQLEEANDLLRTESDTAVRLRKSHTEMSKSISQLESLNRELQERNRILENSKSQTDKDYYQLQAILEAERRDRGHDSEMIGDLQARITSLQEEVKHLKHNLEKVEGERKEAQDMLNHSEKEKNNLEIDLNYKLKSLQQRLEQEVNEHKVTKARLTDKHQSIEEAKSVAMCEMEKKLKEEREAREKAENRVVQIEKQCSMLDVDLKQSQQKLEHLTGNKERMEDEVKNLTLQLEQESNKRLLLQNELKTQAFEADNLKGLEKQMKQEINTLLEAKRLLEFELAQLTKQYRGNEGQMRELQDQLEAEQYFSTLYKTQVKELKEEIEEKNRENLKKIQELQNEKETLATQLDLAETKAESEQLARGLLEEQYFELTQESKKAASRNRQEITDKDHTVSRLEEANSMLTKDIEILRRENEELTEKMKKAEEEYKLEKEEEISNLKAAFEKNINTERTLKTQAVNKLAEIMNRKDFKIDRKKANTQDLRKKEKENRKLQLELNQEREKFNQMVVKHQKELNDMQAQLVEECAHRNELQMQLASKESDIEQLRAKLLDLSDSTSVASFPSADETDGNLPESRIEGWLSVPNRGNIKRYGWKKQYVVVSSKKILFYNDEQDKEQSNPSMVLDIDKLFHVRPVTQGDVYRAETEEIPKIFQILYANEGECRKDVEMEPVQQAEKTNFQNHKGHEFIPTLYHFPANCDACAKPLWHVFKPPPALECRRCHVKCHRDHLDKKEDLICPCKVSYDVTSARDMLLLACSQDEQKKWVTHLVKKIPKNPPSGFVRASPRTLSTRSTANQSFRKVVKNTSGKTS
T2 sequence (O75116 whole entry): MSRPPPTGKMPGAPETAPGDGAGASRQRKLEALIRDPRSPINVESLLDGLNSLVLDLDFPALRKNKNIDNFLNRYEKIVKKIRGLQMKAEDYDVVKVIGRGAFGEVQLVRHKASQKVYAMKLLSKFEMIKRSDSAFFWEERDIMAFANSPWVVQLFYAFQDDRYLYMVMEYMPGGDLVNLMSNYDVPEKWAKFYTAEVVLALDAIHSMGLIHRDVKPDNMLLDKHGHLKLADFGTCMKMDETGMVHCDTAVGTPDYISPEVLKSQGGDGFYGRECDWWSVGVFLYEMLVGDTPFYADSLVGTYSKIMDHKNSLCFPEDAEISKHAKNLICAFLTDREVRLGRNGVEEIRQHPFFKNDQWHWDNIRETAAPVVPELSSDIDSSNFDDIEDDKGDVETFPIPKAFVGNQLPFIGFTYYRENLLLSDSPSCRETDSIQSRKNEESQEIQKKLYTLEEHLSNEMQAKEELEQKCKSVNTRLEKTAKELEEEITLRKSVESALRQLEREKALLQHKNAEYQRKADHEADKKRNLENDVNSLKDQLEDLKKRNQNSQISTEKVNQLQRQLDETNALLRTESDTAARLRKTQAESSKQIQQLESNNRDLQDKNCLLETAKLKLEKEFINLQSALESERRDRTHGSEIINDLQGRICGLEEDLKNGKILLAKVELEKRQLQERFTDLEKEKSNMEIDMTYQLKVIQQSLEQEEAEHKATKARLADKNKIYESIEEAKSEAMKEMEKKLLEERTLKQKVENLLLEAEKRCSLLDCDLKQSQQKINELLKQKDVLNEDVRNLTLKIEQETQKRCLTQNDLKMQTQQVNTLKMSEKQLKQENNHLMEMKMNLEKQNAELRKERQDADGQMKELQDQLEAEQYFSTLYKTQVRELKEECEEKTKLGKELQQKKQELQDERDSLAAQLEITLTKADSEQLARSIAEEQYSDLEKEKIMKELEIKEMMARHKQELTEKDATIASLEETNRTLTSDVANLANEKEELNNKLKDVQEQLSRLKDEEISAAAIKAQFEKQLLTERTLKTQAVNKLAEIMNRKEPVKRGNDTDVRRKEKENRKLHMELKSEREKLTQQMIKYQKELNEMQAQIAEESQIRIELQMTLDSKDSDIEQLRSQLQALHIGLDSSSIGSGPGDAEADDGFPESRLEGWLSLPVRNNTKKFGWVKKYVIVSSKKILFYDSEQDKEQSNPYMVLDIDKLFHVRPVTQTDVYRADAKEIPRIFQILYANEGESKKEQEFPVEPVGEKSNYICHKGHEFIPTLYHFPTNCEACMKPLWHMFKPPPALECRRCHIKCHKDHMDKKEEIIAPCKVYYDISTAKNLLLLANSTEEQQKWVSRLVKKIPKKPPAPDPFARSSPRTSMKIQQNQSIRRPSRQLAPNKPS

Ki [1] [nM]	Ki [2] [nM]	Ratio Ki PKA/ROCK2 [3]	Ki [4] [nM]	Ki [5] [nM]	SMILES
3 to 30	3 to 30	*** (ratio≥10)			O=C(NCCCF)c1cccc(CNc2ncc(-c3cn[nH]c3)c3c2CCO3)c1 [Example 3, 3-(((7-(1H-pyrazol-4-yl)-2,3-dihydrofuro[3,2-c]pyridin-4-yl)amino)methyl)-N-(3-fluoropropyl)benzamide]
3 to 30	3 to 30	*** (ratio≥10)			O=C(NCC1CC1)c1cccc(CNc2ncc(-c3cn[nH]c3)c3c2CCO3)c1 [Example 5, 3-(((7-(1H-pyrazol-4-yl)-2,3-dihydrofuro[3,2-c]pyridin-4-yl)amino)methyl)-N-(cyclopropylmethyl)benzamide]
3 to 30	3 to 30	*** (ratio≥10)			CC1(C)CC(NC(=O)c2cccc(CNc3ncc(-c4cn[nH]c4)c4c3CCO4)c2)CO1 (stereo not shown) [Example 6, 3-(((7-(1H-pyrazol-4-yl)-2,3-dihydrofuro[3,2-c]pyridin-4-yl)amino)methyl)-N-(5,5-dimethyltetrahydrofuran-3-yl)benzamide]
3 to 30	≤ 3	*** (ratio≥10)			Cn1cnc(CNC(=O)c2cccc(CNc3ncc(-c4cn[nH]c4)c4c3CCO4)c2)c1 [Example 8, 3-(((7-(1H-pyrazol-4-yl)-2,3-dihydrofuro[3,2-c]pyridin-4-yl)amino)methyl)-N-((1-methyl-1H-imidazol-4-yl)methyl)benzamide]
≤ 3	≤ 3	*** (ratio≥10)			O=C(NCc1cnon1)c1cccc(CNc2ncc(-c3cn[nH]c3)c3c2CCO3)c1 [Example 10, N-((1,2,5-oxadiazol-3-yl)methyl)-3-(((7-(1H-pyrazol-4-yl)-2,3-dihydrofuro[3,2-c]pyridin-4-yl)amino)methyl)benzamide]
3 to 30	3 to 30	*** (ratio≥10)			O=C(NC1CC(F)(F)C1)c1cccc(CNc2ncc(-c3cn[nH]c3)c3c2CCO3)c1 [Example 12, 3-(((7-(1H-pyrazol-4-yl)-2,3-dihydrofuro[3,2-c]pyridin-4-yl)amino)methyl)-N-(3,3-difluorocyclobutyl)benzamide]
≤ 3	≤ 3	*** (ratio≥10)	≤ 3	≤ 3	CN1CCn2nc(NC(=O)c3cccc(CNc4ncc(-c5cn[nH]c5)c5c4CCO5)c3)cc2C1 [Example 15, 3-(((7-(1H-pyrazol-4-yl)-2,3-dihydrofuro[3,2-c]pyridin-4-yl)amino)methyl)-N-(5-methyl-4,5,6,7-tetrahydropyrazolo[1,5-a]pyrazin-2-yl)benzamide]
≤ 3	≤ 3	*** (ratio≥10)	≤ 3	≤ 3	CN1CCC(CCNC(=O)c2cccc(CNc3ncc(-c4cn[nH]c4)c4c3CCO4)c2)CC1 [Example 16, 3-(((7-(1H-pyrazol-4-yl)-2,3-dihydrofuro[3,2-c]pyridin-4-yl)amino)methyl)-N-(2-(1-methylpiperidin-4-yl)ethyl)benzamide]
≤ 3	≤ 3	*** (ratio≥10)	≤ 3	≤ 3	O=C(NCCC1CCN(C2COC2)CC1)c1cccc(CNc2ncc(-c3cn[nH]c3)c3c2CCO3)c1 [Example 28, 3-(((7-(1H-pyrazol-4-yl)-2,3-dihydrofuro[3,2-c]pyridin-4-yl)amino)methyl)-N-(2-(1-(oxetan-3-yl)piperidin-4-yl)ethyl)benzamide]
≤ 3	≤ 3	*** (ratio≥10)			COc1ccc(NC(=O)c2cccc(CNc3ncc(-c4cn[nH]c4)c4c3CCO4)c2)nc1 [Example 31, 3-(((7-(1H-Pyrazol-4-yl)-2,3-dihydrofuro[3,2-c]pyridin-4-yl)amino)methyl)-N-(5-methoxypyridin-2-yl)benzamide]
≤ 3	≤ 3	*** (ratio≥10)			O=C(Nc1ccncn1)c1cccc(CNc2ncc(-c3cn[nH]c3)c3c2CCO3)c1 [Example 32, 3-(((7-(1H-pyrazol-4-yl)-2,3-dihydrofuro[3,2-c]pyridin-4-yl)amino)methyl)-N-(pyrimidin-4-yl)benzamide]
≤ 3	≤ 3	*** (ratio≥10)	≤ 3	≤ 3	CN(C)C1CCc2nc(NC(=O)c3cccc(CNc4ncc(-c5cn[nH]c5)c5c4CCO5)c3)sc2C1 (stereo not shown) [Example 33, 3-(((7-(1H-Pyrazol-4-yl)-2,3-dihydrofuro[3,2-c]pyridin-4-yl)amino)methyl)-N-(6-(dimethylamino)-4,5,6,7-tetrahydrobenzo[d]thiazol-2-yl)benzamide]
≤ 3	≤ 3	*** (ratio≥10)	≤ 3	≤ 3	O=C(Nc1nc2c(s1)CC(NC1COC1)CC2)c1cccc(CNc2ncc(-c3cn[nH]c3)c3c2CCO3)c1 (stereo not shown) [Example 34, 3-(((7-(1H-pyrazol-4-yl)-2,3-dihydrofuro[3,2-c]pyridin-4-yl)amino)methyl)-N-(6-(oxetan-3-ylamino)-4,5,6,7-tetrahydrobenzo[d]thiazol-2-yl)benzamide]
≤ 3	≤ 3	*** (ratio≥10)			CN(C)CCOc1ccc(NC(=O)c2cccc(CNc3ncc(-c4cn[nH]c4)c4c3CCO4)c2)nc1 [Example 57, 3-(((7-(1H-pyrazol-4-yl)-2,3-dihydrofuro[3,2-c]pyridin-4-yl)amino)methyl)-N-(5-(2-(dimethylamino)ethoxy)pyridin-2-yl)benzamide]
> 30	> 30	* (ratio≤5)			c1ccc(CNc2ncc(-c3cn[nH]c3)c3c2CCO3)cc1 [Example C, N-Benzyl-7-(1H-pyrazol-4-yl)-2,3-dihydrofuro[3,2-c]pyridin-4-amine, reference compound]
